Laboratory results reported in paper PMC5025651, “Reprofiled anthelmintics abate hypervirulent stationary-phase Clostridium difficile” (Scientific Reports, 2016).
≈ marks a conversion by molar mass, not a printed value. Where a name gives a salt, the structure may show the parent alone. Read-outs that look alike come from different tables or passages of the source.

Columns and labels:
[1] = system: C. difficile isolate 20110566 (ribotype 020); test: MIC by broth microdilution; format: cell-based, Clostridium difficile; settings: Clostridioides difficile
[2] = Hemolysis assay; format: cell-based; settings: sheep, pH 7.4
Description: (§1) Sheep red blood cells (Innovative Research, Novi, MI, USA) were washed three times with PBS pH 7.4. A 3% cell suspension in PBS (100 μL) was added to test compounds in PBS (100 μL, to a final concentration of 32 μg/mL), and then incubated at 37 °C for 1 h. The plate was centrifuged at 500 × g for 10 min, and supernatants (100 μL) were transferred to a clean 96-well plate. Hemolysis was determined by measuring absorbance at 540 nm, with 1% Triton X-100 as the positive control and 0.5% DMSO in PBS as the negative control. Hemolysis assays were performed in triplicate.

[3] = ruminants; cited from earlier work
[4] = system: C. difficile strain 630 (CD630, ATCC BAA-1382-FZ, ribotype 012); test: MIC by broth microdilution; format: cell-based, Clostridium difficile
[5] = system: HEK 293T/17 cells; test: In vitro cytotoxicity, MTS assay; format: cell-based, human; settings: HEK 293T/17, MTS; for in vitro toxicity compared with niclosamide (in words): 0.125–32 μg/mL
Description: (§2) Cell lines Hep G2 [HEPG2] (ATCC® HB-8065^TM) and 293T/17 [HEK 293T/17] (ATCC® CRL-11268^TM) were purchased from ATCC and cultured according to manufacturer’s instructions. HEPG2 or HEK 293T/17 cells were cultured in 96-well plates, and incubated at 37 °C in a 5% CO2 humidifying chamber for 24 h. Cells were then treated with test compounds at concentrations ranging from 0.125–32 μg/mL, and an MTS assay was performed at 16-h post-incubation at 37 °C in a 5% CO2 humidifying chamber, using the CellTiter 96 aqueous non-radioactive cell proliferation assay kit (Promega, Madison, WI, USA) per manufacturer’s instructions. MTS assays were performed in duplicate.

[6] = system: HepG2 cells; test: In vitro cytotoxicity, MTS assay; format: cell-based, human; settings: for in vitro toxicity compared with niclosamide (in words): 0.125–32 μg/mL
Description: as §2

[7] = system: Sheep red blood cells; test: Hemolysis assay; format: cell-based; settings: tested at 32 μg/mL, sheep erythrocytes
Description: as §1

[8] = system: C. difficile strain 4118; test: Serial passage experiments (resistance development); format: cell-based, Clostridium difficile; settings: after 21 serial passages of CD4118 at 0.5 × MIC
Description: C. difficile strain 4118 serial passages were performed in BHIS containing 0.03% L-cysteine, using the broth microdilution method. The MIC for each compound was first determined according to the procedure detailed above. […] Serial passage experiments were performed in duplicate.

[9] = system: panel of obligate aerobes, facultative anaerobes and obligate anaerobes; test: Antibacterial spectrum, MIC against a panel of bacteria; format: cell-based; settings: ratio of MIC values
[10] = isolate 20110566, ribotype 020, duplicate, read-out: MIC
[11] = sheep red blood cells (3% suspension), 32 µg/mL, 1 h, 37 °C, 1% Triton X-100 positive control, triplicate, read-out: Hemolysis (%)

Structure (SMILES): Cc1cc(C(C#N)c2ccc(Cl)cc2)c(Cl)cc1NC(=O)c1cc(I)cc(I)c1O (stereo not shown) [Closantel]
- MIC [1, 10]: 0.25 µg/mL (≈ 0.377 µM)
- hemolysis at 1 h, 32 µg/mL [2]: < 1%
- excreted unchanged in the feces [3]: ≤ 90%

Structure (SMILES): O=C(Nc1ccc(Oc2ccc(Cl)cc2)cc1)c1cc(Cl)cc(Cl)c1O [Compound 8]
- MIC C. difficile 630 ([4]; BHIS broth, anaerobic, 20–24 h, n = 2): 0.03 µg/mL (≈ 0.0734 µM)
- decrease in MIC relative to 5g ([4]; CD630 and CD4118 (Table 2)): 4 fold
- MIC ([4]; Clostridioides difficile, ATCCBAA1382, BHIS broth, anaerobic, 20–24 h, n = 2): 0.03 µg/mL (≈ 0.0734 µM)
- in vitro toxicity compared with niclosamide (in words) [5]: lower in vitro toxicities
- in vitro toxicity compared with niclosamide (in words) ([6]; HepG2, MTS): lower in vitro toxicities
- MIC [1, 10]: 0.06 µg/mL (≈ 0.147 µM)
- hemolysis at 1 h, 32 µg/mL [2, 11]: < 1%
- rupture of red blood cells (in words) [7]: did not cause rupture of red blood cells

Structure (SMILES): Cc1ncc([N+](=O)[O-])n1CCO [Metronidazole, metronidazole]
- final MIC relative to initial (pre-passage) MIC [8]: ~ 2 fold
- MIC [1, 10]: 0.25 µg/mL (≈ 1.46 µM)
- hemolysis at 1 h, 32 µg/mL [2, 11]: < 1%

Structure (SMILES): O=C(Nc1ccc(Oc2ccc(Cl)cc2)c(Cl)c1)c1cc(I)cc(I)c1O [Rafoxanide, rafoxanide]
- selectivity for C. difficile over Bifidobacterium/Lactobacillus strains and Gram-negative gut commensals (Bacteroides species) [9]: ≥ 32 fold
- in vitro toxicity compared with niclosamide (in words) [5]: lower in vitro toxicities
- concentration with no apparent effect on cell viability ([5]; 16 h): ≥ 8000 ng/mL
- no-effect concentration on mammalian cell viability relative to MIC values against C. difficile ([6]; 8 μg/mL, HepG2 and HEK 293T/17): ≥ 64 fold
- in vitro toxicity compared with niclosamide (in words) ([6]; HepG2, MTS): lower in vitro toxicities
- concentration with no apparent effect on cell viability ([6]; HepG2, MTS, 16 h): ≥ 8000 ng/mL
- MIC [1]: 0.06 µg/mL (≈ 0.0958 µM)
- hemolysis at 1 h, 32 µg/mL ([2]; 32 µg/mL, 1 h, 37 °C, 1% Triton X-100 positive control, triplicate, read-out: Hemolysis (%)): < 1%
- rupture of red blood cells (in words) [7]: did not cause rupture of red blood cells

Structure (SMILES): CN[C@H](CC(C)C)C(=O)N[C@H]1C(=O)N[C@@H](CC(N)=O)C(=O)N[C@H]2C(=O)N[C@H]3C(=O)N[C@H](C(=O)N[C@H](C(=O)O)c4cc(O)cc(O)c4-c4cc3ccc4O)[C@H](O)c3ccc(c(Cl)c3)Oc3cc2cc(c3O[C@@H]2O[C@H](CO)[C@@H](O)[C@H](O)[C@H]2O[C@H]2C[C@](C)(N)[C@H](O)[C@H](C)O2)Oc2ccc(cc2Cl)[C@H]1O [Vancomycin, vancomycin hydrochloride hydrate]
- final MIC relative to initial (pre-passage) MIC [8]: ~ 2 fold
- MIC [1, 10]: 0.5 µg/mL
